{"source": "patent US12133912B2", "about": "“Stable pharmaceutical compositions of succinylcholine chloride” (Slayback Pharma LLC., priority 2021, dated 2024)", "origin": "cited, not measured here", "key": {"[1]": {"target": "T1, cholinergic receptors of the motor end plate (Homo sapiens, UniProt P02708+Q04844+Q07001)", "T1 construct": "Succinylcholine combines with the cholinergic receptors of the motor end plate to produce depolarization; from tissue; host or cells: motor end plate of skeletal muscle, in vivo after intravenous administration", "T1 sequence (P02708 21-457)": "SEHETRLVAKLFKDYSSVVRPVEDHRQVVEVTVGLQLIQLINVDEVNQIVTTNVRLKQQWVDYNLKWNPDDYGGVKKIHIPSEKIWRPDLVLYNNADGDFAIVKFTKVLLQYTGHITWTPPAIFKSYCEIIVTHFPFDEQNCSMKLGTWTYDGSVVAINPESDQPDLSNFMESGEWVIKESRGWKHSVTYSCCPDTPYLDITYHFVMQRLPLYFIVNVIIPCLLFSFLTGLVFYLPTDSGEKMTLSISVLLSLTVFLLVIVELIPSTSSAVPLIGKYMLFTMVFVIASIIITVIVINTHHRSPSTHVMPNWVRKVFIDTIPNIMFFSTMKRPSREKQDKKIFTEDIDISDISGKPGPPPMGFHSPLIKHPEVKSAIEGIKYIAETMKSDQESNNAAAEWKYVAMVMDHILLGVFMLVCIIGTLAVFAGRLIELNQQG", "T1 sequence (Q07001 22-517)": "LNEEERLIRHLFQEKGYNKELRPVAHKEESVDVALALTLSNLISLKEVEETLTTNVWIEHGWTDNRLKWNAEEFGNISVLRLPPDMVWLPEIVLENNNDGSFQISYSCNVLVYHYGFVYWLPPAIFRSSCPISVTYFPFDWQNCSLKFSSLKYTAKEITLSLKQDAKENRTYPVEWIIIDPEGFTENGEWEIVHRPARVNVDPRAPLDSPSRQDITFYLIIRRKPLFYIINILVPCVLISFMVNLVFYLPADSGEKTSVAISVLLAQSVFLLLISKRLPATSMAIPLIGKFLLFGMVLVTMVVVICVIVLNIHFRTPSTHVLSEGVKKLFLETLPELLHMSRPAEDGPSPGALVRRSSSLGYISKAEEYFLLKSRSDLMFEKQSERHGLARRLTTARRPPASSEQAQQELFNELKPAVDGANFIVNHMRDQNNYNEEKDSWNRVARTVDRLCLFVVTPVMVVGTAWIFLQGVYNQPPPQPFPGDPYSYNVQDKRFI", "T1 sequence (Q04844 21-493)": "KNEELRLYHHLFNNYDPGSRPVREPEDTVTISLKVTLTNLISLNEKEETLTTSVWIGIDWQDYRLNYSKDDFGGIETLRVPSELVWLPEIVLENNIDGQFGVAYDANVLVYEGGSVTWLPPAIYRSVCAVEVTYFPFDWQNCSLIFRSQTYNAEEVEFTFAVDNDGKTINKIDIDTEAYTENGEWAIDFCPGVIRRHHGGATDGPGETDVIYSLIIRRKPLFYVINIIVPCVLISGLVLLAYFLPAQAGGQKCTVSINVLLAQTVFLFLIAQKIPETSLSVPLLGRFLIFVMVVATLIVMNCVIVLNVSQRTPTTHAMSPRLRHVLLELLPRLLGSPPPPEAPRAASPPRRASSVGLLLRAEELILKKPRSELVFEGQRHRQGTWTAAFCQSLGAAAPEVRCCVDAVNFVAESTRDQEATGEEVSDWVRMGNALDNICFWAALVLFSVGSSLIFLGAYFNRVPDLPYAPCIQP", "T1 sequence (P11230 24-501 partner)": "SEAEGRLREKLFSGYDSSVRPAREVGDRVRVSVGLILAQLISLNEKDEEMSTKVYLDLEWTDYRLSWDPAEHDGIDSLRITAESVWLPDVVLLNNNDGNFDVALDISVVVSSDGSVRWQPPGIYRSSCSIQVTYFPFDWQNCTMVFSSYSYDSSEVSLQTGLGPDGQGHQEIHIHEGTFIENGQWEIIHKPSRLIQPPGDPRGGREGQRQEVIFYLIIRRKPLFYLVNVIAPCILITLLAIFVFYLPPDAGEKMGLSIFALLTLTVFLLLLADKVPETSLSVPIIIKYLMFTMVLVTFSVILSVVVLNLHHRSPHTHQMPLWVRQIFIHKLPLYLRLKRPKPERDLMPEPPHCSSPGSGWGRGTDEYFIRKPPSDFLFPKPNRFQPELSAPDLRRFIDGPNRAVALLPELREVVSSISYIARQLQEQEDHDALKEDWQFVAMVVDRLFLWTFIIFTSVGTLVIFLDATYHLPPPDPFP", "settings": "after intravenous administration"}}, "data": [{"molecule": "C[N+](C)(C)CCOC(=O)CCC(=O)OCC[N+](C)(C)C", "note": "[Succinylcholine chloride, 2,2′-[(1,4-dioxo-1,4-butanediyl)bis(oxy)]bis[N,N,Ntrimethylethanaminium] dichloride]", "values": [{"measurement": "Solubility in alcohol", "setting": "alcohol", "value": "slightly soluble"}, {"measurement": "Solubility in ether", "setting": "ether", "value": "practically insoluble"}, {"measurement": "Solubility in water", "setting": "water", "value": "freely soluble"}, {"measurement": "Onset of flaccid paralysis", "setting": "[1]", "value": "less than one"}]}]}
